Laboratory results from patent publication US10597388B2, “Pyridazinone herbicides” (FMC CORPORATION, priority 2014, dated 2020).

Tests used:
Format in all cases: in vivo
[1] = system: barnyardgrass (Echinochloa crus-galli); experiment: Test A greenhouse herbicide test, pre- and postemergence
Outline: (§1)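 Seeds sown in loam–sand blend got a preemergence directed soil spray of compound in non-phytotoxic solvent with surfactant. Postemergence treatment was given at 2–10 cm, one- to two-leaf stage. After ~10 d in greenhouse, injury was rated visually vs untreated controls, 0 (no effect) to 100 (complete control).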

corn (Zea mays) = experiment: as above; settings: Postemergence
Outline: as §1

[2] = system: foxtail, giant (giant foxtail, Setaria faberii); experiment: as above
Outline: as §1

kochia (Kochia scoparia) = experiment: as above
Outline: as §1

[3] = system: pigweed (Amaranthus retroflexus); experiment: as above
Outline: as §1

[4] = system: ragweed (common ragweed, Ambrosia elatior); experiment: as above
Outline: as §1

[5] = system: ryegrass, Italian (Italian ryegrass, Lolium multiflorum); experiment: as above
Outline: as §1

[6] = system: wheat (Triticum aestivum); experiment: as above; settings: Postemergence
Outline: as §1

[7] = system: lambsquarters (Chenopodium album); experiment: Test C greenhouse herbicide test, pre- and postemergence
Outline: (§2)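 Two application timings: at sowing into a soil/sand blend, and on 2–18 cm seedlings in peat-vermiculite potting mix. A non-phytotoxic, surfactant-containing solvent carried the compounds. Plants were compared with controls and rated visually on 0–100 after 13–15 d.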

[8] = system: nutsedge, yellow (yellow nutsedge, Cyperus esculentus); experiment: as above
Outline: as §2

[9] = system: ryegrass, Italian (Italian ryegrass, Lolium multiflorum); experiment: as above
Outline: as §2

[10] = Postemergence, 125 g ai/ha, 0 to 100 scale where 0 is no effect and 100 is complete control
[11] = Postemergence, 500 g ai/ha, visual rating after approx. 10 d, 0 to 100 scale (0 no effect, 100 complete control)
[12] = Preemergence, 125 g ai/ha, 0 to 100 scale where 0 is no effect and 100 is complete control
[13] = Preemergence, 500 g ai/ha, 0 to 100 scale where 0 is no effect and 100 is complete control
[14] = 125 g ai/ha, 0 to 100 scale where 0 is no effect and 100 is complete control
[15] = 500 g ai/ha, visual rating after approx. 10 d, 0 to 100 scale (0 no effect, 100 complete control)
[16] = Postemergence, 31 g ai/ha, scale 0 to 100 (0 no effect, 100 complete control)
[17] = Postemergence, 62 g ai/ha, 0 to 100 scale (0 no effect, 100 complete control)
[18] = Postemergence, 250 g ai/ha, scale 0 to 100, 0 no effect, 100 complete control, 13 to 15 d
[19] = Preemergence, 31 g ai/ha, scale 0 to 100, 0 is no effect, 100 is complete control
[20] = Preemergence, 62 g ai/ha, scale 0 to 100, 0 is no effect, 100 is complete control
[21] = Preemergence, 125 g ai/ha, scale 0 to 100, 0 is no effect, 100 is complete control
[22] = Preemergence, 250 g ai/ha, scale 0 to 100 (0 no effect, 100 complete control)
[23] = postemergence, 125 g ai/ha, scale 0 to 100, 0 no effect, 100 complete control

COC(=O)Oc1c(Br)nn(C)c(=O)c1-c1c(C)ccc2ccccc12 [Compound 137]
85: Nutsedge, Yellow plant response rating [8, 17] | Plant response rating, Nutsedge, Yellow [8, 20] | Nutsedge, Yellow plant response rating [8, 23] | Plant response rating, Ryegrass, Italian [9, 19]
98: Lambsquarters plant response rating [7, 23]
50: Plant response rating, Wheat [6, 14]
65: Plant response rating, Nutsedge, Yellow [8, 16]
70: Plant response rating, Barnyardgrass [1, 10] | Plant response rating, Corn (corn (Zea mays); [15])
95: Lambsquarters plant response rating [7, 22] | Nutsedge, Yellow plant response rating [8, 22] | Plant response rating, Ryegrass, Italian [9, 20]
10: Plant response rating, Ryegrass, Italian [9, 16]
55: Plant response rating, Nutsedge, Yellow [8, 19]
90: Barnyardgrass plant response rating [1, 12] | Foxtail, Giant plant response rating [2, 12] | Ragweed plant response rating [4, 12] | Plant response rating, Wheat [6, 15] | Plant response rating, Lambsquarters [7, 16] | Lambsquarters plant response rating [7, 17] | Plant response rating, Lambsquarters [7, 19] | Plant response rating, Nutsedge, Yellow [8, 18] | Plant response rating, Nutsedge, Yellow [8, 21]
100: Plant response rating, Barnyardgrass [1, 11] | Plant response rating, Barnyardgrass [1, 13] | Plant response rating, Foxtail, Giant [2, 10] | Plant response rating, Foxtail, Giant [2, 11] | Plant response rating, Foxtail, Giant [2, 13] | Plant response rating, Kochia (kochia (Kochia scoparia); [10]) | Plant response rating, Kochia (kochia (Kochia scoparia); [11]) | Plant response rating, Kochia (kochia (Kochia scoparia); [13]) | Plant response rating, Pigweed [3, 10] | Plant response rating, Pigweed [3, 11] | Pigweed plant response rating [3, 12] | Plant response rating, Pigweed [3, 13] | Plant response rating, Ragweed [4, 10] | Plant response rating, Ragweed [4, 11] | Plant response rating, Ragweed [4, 13] | Plant response rating, Ryegrass, Italian [5, 10] | Plant response rating, Ryegrass, Italian [5, 11] | Ryegrass, Italian plant response rating [5, 12] | Plant response rating, Ryegrass, Italian [5, 13] | Plant response rating, Lambsquarters [7, 18] | Plant response rating, Lambsquarters [7, 20] | Plant response rating, Lambsquarters [7, 21] | Plant response rating, Ryegrass, Italian [9, 21] | Ryegrass, Italian plant response rating [9, 22]
30: Plant response rating, Corn (corn (Zea mays); [14]) | Kochia plant response rating (kochia (Kochia scoparia); [12]) | Ryegrass, Italian plant response rating [9, 17] | Ryegrass, Italian plant response rating [9, 23]
60: Plant response rating, Ryegrass, Italian [9, 18]
